Measured values taken from patent publication US20240400577A1, “MODULATORS OF PROTEIN KINASES” (VIBLIOME THERAPEUTICS, LLC, priority 2021, published 2024).

What was measured:
Assay in all cases: Kinase panel enzymatic inhibition assay (Nanosyn)
Format in all cases: biochemical
Conditions in all cases: compound 5 μM; ATP at Km; 30-minute pre-incubation
Abl2 = biological target: T1, Abl2 (Homo sapiens, UniProt P42684)
T1 construct: purchased Nanosyn (contract screening)
Outline: (§1)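 Enzymatic inhibition measured within a panel of at least 300 kinases, using a validated format such as Caliper LabChip mobility shift, ADP detection or time-resolved fluorescence. Compounds tested at 5 μM with ATP at each kinase's Km, after a 30-minute pre-incubation. Values given as percent inhibition or IC50.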

BRK = biological target: T2, BRK (Homo sapiens, UniProt Q13882)
T2 construct: purchased Nanosyn (contract screening)
T2 sequence (Q13882 whole entry): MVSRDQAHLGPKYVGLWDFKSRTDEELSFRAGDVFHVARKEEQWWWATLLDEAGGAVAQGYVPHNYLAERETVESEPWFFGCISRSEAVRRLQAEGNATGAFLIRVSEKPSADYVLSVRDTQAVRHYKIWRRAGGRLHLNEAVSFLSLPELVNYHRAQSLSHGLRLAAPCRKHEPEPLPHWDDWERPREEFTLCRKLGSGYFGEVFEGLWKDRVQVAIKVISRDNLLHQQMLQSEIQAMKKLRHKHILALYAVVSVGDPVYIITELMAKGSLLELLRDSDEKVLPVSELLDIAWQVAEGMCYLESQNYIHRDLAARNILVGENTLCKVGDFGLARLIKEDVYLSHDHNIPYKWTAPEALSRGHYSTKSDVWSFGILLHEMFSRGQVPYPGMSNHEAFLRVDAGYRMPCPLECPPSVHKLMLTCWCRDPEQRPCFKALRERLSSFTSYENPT
Outline: as §1

DDR1 = biological target: T3, DDR1 (Homo sapiens, UniProt Q08345)
T3 construct: purchased Nanosyn (contract screening)
Outline: as §1

EPH = system: EPH
Outline: as §1

FGR = biological target: T4, FGR (Homo sapiens, UniProt P09769)
T4 construct: purchased Nanosyn (contract screening)
Outline: as §1

FYN = biological target: T5, FYN (Homo sapiens, UniProt P06241)
T5 construct: purchased Nanosyn (contract screening)
Outline: as §1

HCK = biological target: T6, HCK (Homo sapiens, UniProt P08631)
T6 construct: purchased Nanosyn (contract screening)
T6 sequence (P08631 whole entry): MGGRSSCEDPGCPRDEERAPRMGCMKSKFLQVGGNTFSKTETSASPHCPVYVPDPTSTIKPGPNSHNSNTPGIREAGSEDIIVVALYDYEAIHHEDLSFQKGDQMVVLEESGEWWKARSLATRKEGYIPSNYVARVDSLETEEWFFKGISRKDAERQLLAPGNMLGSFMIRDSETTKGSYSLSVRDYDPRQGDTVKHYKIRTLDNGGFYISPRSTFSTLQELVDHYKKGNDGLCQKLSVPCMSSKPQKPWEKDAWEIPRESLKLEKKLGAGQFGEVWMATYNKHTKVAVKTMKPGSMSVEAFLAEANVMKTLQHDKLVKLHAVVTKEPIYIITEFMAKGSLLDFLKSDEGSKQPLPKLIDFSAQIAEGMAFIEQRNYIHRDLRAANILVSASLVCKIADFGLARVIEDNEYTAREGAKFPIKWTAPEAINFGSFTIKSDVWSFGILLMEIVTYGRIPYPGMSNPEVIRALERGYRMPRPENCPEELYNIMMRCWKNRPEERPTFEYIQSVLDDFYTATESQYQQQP
Outline: as §1

LYNa = biological target: T7, LYNa (Homo sapiens, UniProt P07948)
T7 construct: purchased Nanosyn (contract screening)
T7 sequence (P07948 whole entry): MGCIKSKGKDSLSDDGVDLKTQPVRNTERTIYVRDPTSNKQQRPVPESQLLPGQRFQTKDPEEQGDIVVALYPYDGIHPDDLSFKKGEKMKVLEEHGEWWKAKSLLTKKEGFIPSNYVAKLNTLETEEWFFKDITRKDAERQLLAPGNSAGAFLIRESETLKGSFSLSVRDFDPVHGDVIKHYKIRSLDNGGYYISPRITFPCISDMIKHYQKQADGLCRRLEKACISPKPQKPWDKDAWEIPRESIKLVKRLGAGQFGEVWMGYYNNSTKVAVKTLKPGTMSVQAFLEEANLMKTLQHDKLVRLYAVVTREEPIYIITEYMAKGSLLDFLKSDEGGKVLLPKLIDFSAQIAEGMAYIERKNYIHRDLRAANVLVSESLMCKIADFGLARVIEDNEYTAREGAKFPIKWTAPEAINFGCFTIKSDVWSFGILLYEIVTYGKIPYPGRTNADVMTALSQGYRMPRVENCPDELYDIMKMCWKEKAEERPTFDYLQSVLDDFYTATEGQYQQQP
Outline: as §1

PDGFRb = biological target: T8, PDGFRb (Homo sapiens, UniProt P09619)
T8 construct: Nanosyn (contract laboratory that ran the panel)
Outline: as §1

PIKfyve = biological target: T9, PIKfyve (Homo sapiens, UniProt Q9Y2I7)
T9 construct: Nanosyn (contract laboratory that ran the panel)
Outline: as §1

PKCb1 = biological target: T10, PKCb1 (Homo sapiens, UniProt P05771)
T10 construct: Nanosyn (contract laboratory that ran the panel)
Outline: as §1

RET = biological target: T11, RET (Homo sapiens, UniProt P07949)
T11 construct: Nanosyn (contract laboratory that ran the panel)
T11 sequence (P07949 29-1114): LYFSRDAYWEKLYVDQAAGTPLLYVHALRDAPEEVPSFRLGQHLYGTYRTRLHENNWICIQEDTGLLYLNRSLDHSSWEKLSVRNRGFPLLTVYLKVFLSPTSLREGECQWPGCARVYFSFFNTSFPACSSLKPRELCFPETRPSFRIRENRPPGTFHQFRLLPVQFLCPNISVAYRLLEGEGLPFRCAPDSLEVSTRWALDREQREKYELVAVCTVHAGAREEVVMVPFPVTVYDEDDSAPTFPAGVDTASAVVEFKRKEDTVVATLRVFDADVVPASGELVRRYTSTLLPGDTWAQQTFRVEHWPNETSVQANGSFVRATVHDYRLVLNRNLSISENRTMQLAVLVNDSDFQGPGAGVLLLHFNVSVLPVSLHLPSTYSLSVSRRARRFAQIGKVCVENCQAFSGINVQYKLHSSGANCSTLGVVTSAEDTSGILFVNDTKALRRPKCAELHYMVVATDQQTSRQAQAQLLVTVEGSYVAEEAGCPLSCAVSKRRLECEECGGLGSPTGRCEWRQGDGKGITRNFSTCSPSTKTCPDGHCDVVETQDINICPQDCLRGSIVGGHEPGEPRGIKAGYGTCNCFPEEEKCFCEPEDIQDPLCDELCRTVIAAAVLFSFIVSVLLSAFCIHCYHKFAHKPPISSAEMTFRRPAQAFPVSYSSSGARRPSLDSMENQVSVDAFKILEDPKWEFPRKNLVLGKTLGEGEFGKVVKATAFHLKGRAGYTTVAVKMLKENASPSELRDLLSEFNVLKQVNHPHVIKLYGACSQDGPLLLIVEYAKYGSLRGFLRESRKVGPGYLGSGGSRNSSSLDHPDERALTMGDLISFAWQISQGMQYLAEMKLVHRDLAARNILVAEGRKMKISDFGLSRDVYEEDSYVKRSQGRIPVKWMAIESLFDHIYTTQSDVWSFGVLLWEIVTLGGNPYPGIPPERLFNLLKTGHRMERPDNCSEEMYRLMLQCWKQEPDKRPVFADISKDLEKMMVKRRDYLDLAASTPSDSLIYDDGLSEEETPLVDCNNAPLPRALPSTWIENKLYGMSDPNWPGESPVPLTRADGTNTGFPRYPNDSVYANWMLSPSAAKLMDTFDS
Outline: as §1

SGK2 = biological target: T12, SGK2 (Homo sapiens, UniProt Q9HBY8)
T12 construct: Nanosyn (contract laboratory that ran the panel)
T12 sequence (Q9HBY8 1-367): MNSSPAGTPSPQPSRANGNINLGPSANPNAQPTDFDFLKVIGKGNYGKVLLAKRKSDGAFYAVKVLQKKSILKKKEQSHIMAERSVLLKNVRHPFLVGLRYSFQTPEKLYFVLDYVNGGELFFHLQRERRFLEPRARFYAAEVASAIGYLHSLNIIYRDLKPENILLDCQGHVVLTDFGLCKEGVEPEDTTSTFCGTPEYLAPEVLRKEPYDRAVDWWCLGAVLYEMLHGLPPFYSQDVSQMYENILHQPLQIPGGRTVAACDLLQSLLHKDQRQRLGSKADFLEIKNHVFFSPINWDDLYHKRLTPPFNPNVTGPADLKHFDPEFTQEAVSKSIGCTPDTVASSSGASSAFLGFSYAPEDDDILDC
Outline: as §1

SGK3 = biological target: T13, SGK3 (Homo sapiens, UniProt Q96BR1)
T13 construct: Nanosyn (contract laboratory that ran the panel)
T13 sequence (Q96BR1 1-496): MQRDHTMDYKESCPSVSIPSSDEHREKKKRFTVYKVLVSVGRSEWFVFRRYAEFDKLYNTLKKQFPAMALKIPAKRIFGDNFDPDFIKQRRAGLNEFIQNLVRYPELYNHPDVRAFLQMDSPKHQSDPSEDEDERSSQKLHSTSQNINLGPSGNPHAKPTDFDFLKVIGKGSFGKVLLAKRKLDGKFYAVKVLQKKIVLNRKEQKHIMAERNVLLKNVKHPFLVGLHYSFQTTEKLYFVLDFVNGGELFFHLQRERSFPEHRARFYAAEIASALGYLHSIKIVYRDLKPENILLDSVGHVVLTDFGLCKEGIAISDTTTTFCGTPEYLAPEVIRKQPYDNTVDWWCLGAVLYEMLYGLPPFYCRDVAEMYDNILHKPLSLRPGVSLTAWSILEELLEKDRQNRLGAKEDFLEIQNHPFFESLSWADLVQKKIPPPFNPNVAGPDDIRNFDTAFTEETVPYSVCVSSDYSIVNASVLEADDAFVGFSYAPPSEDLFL
Outline: as §1

SPHK2 = biological target: T14, SPHK2 (Homo sapiens, UniProt Q9NRA0)
T14 construct: Nanosyn (contract laboratory that ran the panel)
T14 sequence (Q9NRA0 1-654): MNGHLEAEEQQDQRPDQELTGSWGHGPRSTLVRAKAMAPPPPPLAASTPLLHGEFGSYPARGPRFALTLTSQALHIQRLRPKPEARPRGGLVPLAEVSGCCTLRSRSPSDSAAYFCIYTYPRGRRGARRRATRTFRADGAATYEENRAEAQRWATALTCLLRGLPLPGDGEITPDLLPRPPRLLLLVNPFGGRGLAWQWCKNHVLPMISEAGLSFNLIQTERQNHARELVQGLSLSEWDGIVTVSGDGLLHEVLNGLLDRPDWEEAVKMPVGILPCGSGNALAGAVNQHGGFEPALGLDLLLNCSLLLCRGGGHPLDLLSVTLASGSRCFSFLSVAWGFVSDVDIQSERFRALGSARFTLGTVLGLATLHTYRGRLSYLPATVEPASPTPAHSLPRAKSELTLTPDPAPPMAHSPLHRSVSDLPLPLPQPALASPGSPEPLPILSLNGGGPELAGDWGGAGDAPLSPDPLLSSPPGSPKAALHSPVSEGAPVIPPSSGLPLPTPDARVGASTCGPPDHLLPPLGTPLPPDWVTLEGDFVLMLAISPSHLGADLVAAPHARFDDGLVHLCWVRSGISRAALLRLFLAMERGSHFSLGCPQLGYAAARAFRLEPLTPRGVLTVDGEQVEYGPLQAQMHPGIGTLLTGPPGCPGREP
Outline: as §1

SRC = biological target: T15, SRC (Homo sapiens, UniProt P12931)
T15 construct: Nanosyn (contract laboratory that ran the panel)
T15 sequence (P12931 whole entry): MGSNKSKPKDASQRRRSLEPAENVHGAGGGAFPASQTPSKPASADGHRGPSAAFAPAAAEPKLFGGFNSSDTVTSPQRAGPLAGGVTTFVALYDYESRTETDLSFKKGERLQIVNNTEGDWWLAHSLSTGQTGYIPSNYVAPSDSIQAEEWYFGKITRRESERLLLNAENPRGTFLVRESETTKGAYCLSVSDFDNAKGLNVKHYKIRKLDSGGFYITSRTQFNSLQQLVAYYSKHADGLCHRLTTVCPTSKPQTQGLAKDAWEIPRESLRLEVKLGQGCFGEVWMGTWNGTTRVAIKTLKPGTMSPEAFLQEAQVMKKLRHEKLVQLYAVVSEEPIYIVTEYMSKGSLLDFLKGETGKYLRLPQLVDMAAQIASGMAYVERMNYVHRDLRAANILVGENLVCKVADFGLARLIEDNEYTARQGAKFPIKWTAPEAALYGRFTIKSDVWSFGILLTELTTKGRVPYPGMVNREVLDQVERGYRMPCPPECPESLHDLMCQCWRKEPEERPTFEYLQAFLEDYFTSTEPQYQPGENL
Outline: as §1

TNIK = biological target: T16, TNIK (Homo sapiens, UniProt Q9UKE5)
T16 construct: Nanosyn (contract laboratory that ran the panel)
Outline: as §1

p38a = biological target: T17, p38a (Homo sapiens, UniProt Q16539)
T17 construct: Nanosyn (contract laboratory that ran the panel)
T17 sequence (Q16539 whole entry): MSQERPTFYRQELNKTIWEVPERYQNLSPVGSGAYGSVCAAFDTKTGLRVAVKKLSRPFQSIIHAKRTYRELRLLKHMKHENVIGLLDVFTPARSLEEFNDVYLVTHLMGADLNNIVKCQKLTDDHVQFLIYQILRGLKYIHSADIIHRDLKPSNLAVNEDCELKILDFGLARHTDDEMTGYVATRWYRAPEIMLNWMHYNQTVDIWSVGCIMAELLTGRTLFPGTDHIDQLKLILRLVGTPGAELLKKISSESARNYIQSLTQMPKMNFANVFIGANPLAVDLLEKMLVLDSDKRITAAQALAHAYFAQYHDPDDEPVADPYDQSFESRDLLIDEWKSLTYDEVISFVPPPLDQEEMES
Outline: as §1

T1 sequence (P42684 whole entry): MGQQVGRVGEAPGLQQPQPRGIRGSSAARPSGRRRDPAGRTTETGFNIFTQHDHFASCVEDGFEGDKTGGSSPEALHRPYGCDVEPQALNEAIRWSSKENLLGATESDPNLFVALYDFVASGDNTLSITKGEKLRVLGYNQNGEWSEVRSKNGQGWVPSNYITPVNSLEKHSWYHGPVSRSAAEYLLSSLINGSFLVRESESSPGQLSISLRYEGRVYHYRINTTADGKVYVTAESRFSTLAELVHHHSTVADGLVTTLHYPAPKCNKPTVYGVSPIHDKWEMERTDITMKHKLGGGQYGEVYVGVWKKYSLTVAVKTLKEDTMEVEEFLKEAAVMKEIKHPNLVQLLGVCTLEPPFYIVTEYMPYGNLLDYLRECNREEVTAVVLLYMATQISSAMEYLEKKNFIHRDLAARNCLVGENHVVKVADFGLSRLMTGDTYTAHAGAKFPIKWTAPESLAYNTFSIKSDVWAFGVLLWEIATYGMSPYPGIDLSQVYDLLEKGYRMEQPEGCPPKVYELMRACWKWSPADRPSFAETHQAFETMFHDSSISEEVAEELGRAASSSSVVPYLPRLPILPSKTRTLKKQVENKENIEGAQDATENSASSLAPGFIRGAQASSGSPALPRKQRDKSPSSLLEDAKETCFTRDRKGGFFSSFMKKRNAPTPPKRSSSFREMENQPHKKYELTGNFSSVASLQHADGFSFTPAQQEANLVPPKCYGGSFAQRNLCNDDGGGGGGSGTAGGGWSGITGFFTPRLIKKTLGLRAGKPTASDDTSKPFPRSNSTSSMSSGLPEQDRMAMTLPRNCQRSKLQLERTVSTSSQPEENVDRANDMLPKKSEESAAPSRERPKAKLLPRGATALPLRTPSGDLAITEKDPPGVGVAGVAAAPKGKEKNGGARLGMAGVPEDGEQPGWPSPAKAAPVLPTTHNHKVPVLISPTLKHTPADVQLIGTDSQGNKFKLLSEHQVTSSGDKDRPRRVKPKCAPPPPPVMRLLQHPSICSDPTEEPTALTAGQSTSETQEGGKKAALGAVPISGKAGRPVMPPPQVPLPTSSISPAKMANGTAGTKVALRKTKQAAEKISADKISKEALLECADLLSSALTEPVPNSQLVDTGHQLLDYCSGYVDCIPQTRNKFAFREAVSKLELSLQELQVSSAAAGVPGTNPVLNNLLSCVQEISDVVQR

| inhibition at 5 µM (Abl2) | inhibition at 5 µM (BRK) | inhibition at 5 µM (DDR1) | kinase inhibition, EPH (EPH) | inhibition at 5 µM (FGR) | inhibition at 5 µM (FYN) | inhibition at 5 µM (HCK) | inhibition at 5 µM (LYNa) | inhibition at 5 µM (PDGFRb) | inhibition at 5 µM (PIKfyve) | inhibition at 5 µM (PKCb1) | inhibition at 5 µM (RET) | inhibition at 5 µM (SGK2) | inhibition at 5 µM (SGK3) | inhibition at 5 µM (SPHK2) | inhibition at 5 µM (SRC) | inhibition at 5 µM (TNIK) | inhibition at 5 µM (p38a) | Compound |
| --- | --- | --- | --- | --- | --- | --- | --- | --- | --- | --- | --- | --- | --- | --- | --- | --- | --- | --- |
| < 79% | < 79% | ≥ 95% | D (D=79% and less) | < 79% | < 79% | < 79% | < 79% | < 79% | < 79% | < 79% | < 79% | < 79% | < 79% | < 79% | < 79% | < 79% | < 79% | Cc1ccc(NC(=O)c2cc([S+](C)[O-])n(-c3ccc(F)cc3)n2)cc1-c1cc(OCCO)nc(N2CCOCC2)c1 (stereo not drawn) [Ex10, 1-(4-fluorophenyl)-N-(3-(2-(2-hydroxyethoxy)-6-morpholinopyridin-4-yl)-4-methylphenyl)-5-(methylsulfinyl)-1H-pyrazole-3-carboxamide] |
| < 79% | < 79% | < 79% | D (D=79% and less) | < 79% | < 79% | < 79% | < 79% | < 79% | < 79% | < 79% | < 79% | < 79% | < 79% | < 79% | < 79% | < 79% | ≥ 95% | Cc1ccc(NC(=O)c2cc([S+](C)[O-])n(-c3ccc(F)cc3)n2)cc1-c1cc(N2CCOCC2)c(=O)n(C)c1 (stereo not drawn) [Ex11, 1-(4-fluorophenyl)-N-(4-methyl-3-(1-methyl-5-morpholino-6-oxo-1,6-dihydropyridin-3-yl)phenyl)-5-(methylsulfinyl)-1H-pyrazole-3-carboxamide] |
| < 79% | < 79% | 80 to 89% | D (D=79% and less) | < 79% | < 79% | < 79% | < 79% | < 79% | < 79% | < 79% | < 79% | < 79% | < 79% | < 79% | < 79% | < 79% | < 79% | Cc1ccc(NC(=O)c2cc(S(C)(=O)=O)n(-c3ccc(F)cc3)n2)cc1-c1cc(N2CCOCC2)c(=O)n(C)c1 [Ex12, 1-(4-fluorophenyl)-N-(4-methyl-3-(1-methyl-5-morpholino-6-oxo-1,6-dihydropyridin-3-yl)phenyl)-5-(methylsulfonyl)-1H-pyrazole-3-carboxamide] |
| ≥ 95% | < 79% | ≥ 95% | D (D=79% and less) | < 79% | < 79% | < 79% | ≥ 95% | ≥ 95% | < 79% | < 79% | < 79% | < 79% | < 79% | 80 to 89% | < 79% | < 79% | < 79% | Cc1ccc(NC(=O)c2cc(S(C)(=O)=O)n(-c3ccc(F)cc3)n2)cc1Nc1nccc(-c2cccnc2N)n1 [Ex13, N-(3-((4-(2-aminopyridin-3-yl)pyrimidin-2-yl)amino)-4-methylphenyl)-1-(4-fluorophenyl)-5-(methylsulfonyl)-1H-pyrazole-3-carboxamide] |
| ≥ 95% | < 79% | ≥ 95% | D (D=79% and less) | 80 to 89% | 90 to 94% | 90 to 94% | ≥ 95% | 90 to 94% | 80 to 89% | < 79% | 80 to 89% | < 79% | < 79% | < 79% | < 79% | < 79% | < 79% | Cc1ccc(NC(=O)c2cc(S(C)(=O)=O)n(-c3ccc(F)cc3)n2)cc1C#Cc1cnc2cccnn12 [Ex14, 1-(4-fluorophenyl)-N-(3-(imidazo[1,2-b]pyridazin-3-ylethynyl)-4-methylphenyl)-5-(methylsulfonyl)-1H-pyrazole-3-carboxamide] |
| ≥ 95% | < 79% | ≥ 95% | D (D=79% and less) | 80 to 89% | ≥ 95% | 80 to 89% | ≥ 95% | ≥ 95% | < 79% | < 79% | ≥ 95% | < 79% | < 79% | < 79% | 90 to 94% | < 79% | ≥ 95% | CCOC(=O)Nc1cn2nc(Nc3cc(NC(=O)c4cc(S(C)(=O)=O)n(-c5ccc(F)cc5)n4)ccc3C)ccc2n1 [Ex15, ethyl (6-((5-(1-(4-fluorophenyl)-5-(methylsulfonyl)-1H-pyrazole-3-carboxamido)-2-methylphenyl)amino)imidazo[1,2-b]pyridazin-2-yl)carbamate] |
| < 79% | ≥ 95% | 80 to 89% | D (D=79% and less) | < 79% | < 79% | < 79% | < 79% | < 79% | < 79% | < 79% | < 79% | < 79% | < 79% | < 79% | < 79% | < 79% | < 79% | CNC(=O)c1cc(Oc2ccc(NC(=O)c3cc(S(C)(=O)=O)n(-c4ccc(F)cc4)n3)c(F)c2)ccn1 [Ex17, 4-(3-fluoro-4-(1-(4-fluorophenyl)-5-(methylsulfonyl)-1H-pyrazole-3-carboxamido)phenoxy)-N-methylpicolinamide] |
